US20260262643A1, “HERBICIDAL BENZOXAZINES” (FMC CORPORATION, priority 2022, published 2026)

Assays:
wheat [1] = experiment: Test A postemergence; type: in vivo, Triticum aestivum; conditions: postemergence, 10 days; for Wheat plant response rating: 125 g ai/ha, 0 to 100 scale, 0 no effect, 100 complete control; for Plant response rating, Wheat: 500 g ai/ha, visual injury, 0 to 100 scale (0 no effect, 100 complete control)
In short: (§1)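 Greenhouse pot test, 10 days. Compound (non-phytotoxic solvent, surfactant) sprayed on soil at seeding or on seedlings at one- to two-leaf stage. Visual injury rated 0–100 against untreated plants.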

oat, wild [2] = experiment: Test A postemergence; type: in vivo, Avena fatua; conditions: postemergence, 10 days; for Oat, Wild plant response rating: 125 g ai/ha, 0 to 100 scale, 0 no effect, 100 complete control; for Plant response rating, Oat, Wild: 500 g ai/ha, visual injury, 0 to 100 scale (0 no effect, 100 complete control)
In short: as §1

sedge, umbrella = experiment: Test B flooded paddy test; type: in vivo, Cyperus difformis; conditions: 250 g ai/ha, Flood, 13 days, 0 to 100 scale (0 no effect, 100 complete control)
In short: (§2)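 Percent weed or crop control, judged by eye on a 0–100 scale 13 days post-treatment, reflects compound added to a 3 cm flood maintained over 2-leaf plants in the greenhouse. Missing entries are marked with a dash.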

ryegrass, Italian [3] = experiment: Test A preemergence; type: in vivo, Lolium multiflorum; conditions: 0 to 100 scale
In short: as §1

ducksalad = experiment: Test B flooded paddy test; type: in vivo, Heteranthera limosa; conditions: 250 g ai/ha, Flood, 13 days, 0 to 100 scale (0 no effect, 100 complete control)
In short: as §2

barnyardgrass [4] = experiment: Test A preemergence; type: in vivo, Echinochloa crusgalli; conditions: visual injury after 10 days, 0 to 100 scale, 0 is no effect, 100 is complete control
In short: as §1

foxtail, giant [5] = experiment: Test A preemergence; type: in vivo, Setaria faberi; conditions: 0 to 100 scale
In short: as §1

galium = experiment: Test A postemergence; type: in vivo, Galium aparine; conditions: postemergence, 10 days; for Galium plant response rating: 125 g ai/ha, 0 to 100 scale, 0 no effect, 100 complete control; for Plant response rating, Galium: 500 g ai/ha, visual injury, 0 to 100 scale (0 no effect, 100 complete control)
In short: as §1

ragweed [6] = experiment: Test A preemergence; type: in vivo, Ambrosia artemisiifolia; conditions: 0 to 100 scale
In short: as §1

kochia [7] = experiment: Test A preemergence; type: in vivo, Bassia scoparia; conditions: 0 to 100 scale
In short: as §1

oat, wild [8] = experiment: Test A preemergence; type: in vivo, Avena fatua; conditions: 0 to 100 scale
In short: as §1

barnyardgrass [9] = experiment: Test A postemergence; type: in vivo, Echinochloa crusgalli; conditions: postemergence, 10 days; for Barnyardgrass plant response rating: 125 g ai/ha, 0 to 100 scale, 0 no effect, 100 complete control; for Plant response rating, Barnyardgrass: 500 g ai/ha, visual injury, 0 to 100 scale (0 no effect, 100 complete control)
In short: as §1

blackgrass [10] = experiment: Test A postemergence; type: in vivo, Alopecurus myosuroides; conditions: postemergence, 10 days; for Blackgrass plant response rating: 125 g ai/ha, 0 to 100 scale, 0 no effect, 100 complete control; for Plant response rating, Blackgrass: 500 g ai/ha, visual injury, 0 to 100 scale (0 no effect, 100 complete control)
In short: as §1

wheat [11] = experiment: Test A preemergence; type: in vivo, Triticum aestivum; conditions: 0 to 100 scale
In short: as §1

blackgrass [12] = experiment: Test A preemergence; type: in vivo, Alopecurus myosuroides; conditions: 0 to 100 scale
In short: as §1

barnyardgrass [13] = experiment: Test B flooded paddy test; type: in vivo, Echinochloa crus-galli; conditions: 250 g ai/ha, Flood, 13 days, 0 to 100 scale (0 no effect, 100 complete control)
In short: as §2

horseweed = experiment: Test A postemergence; type: in vivo, Erigeron canadensis; conditions: postemergence, 10 days; for Horseweed plant response rating: 125 g ai/ha, 0 to 100 scale, 0 no effect, 100 complete control; for Plant response rating, Horseweed: 500 g ai/ha, visual injury, 0 to 100 scale (0 no effect, 100 complete control)
In short: as §1

rice = experiment: Test B flooded paddy test; type: in vivo, Oryza sativa; conditions: 250 g ai/ha, Flood, 13 days, 0 to 100 scale (0 no effect, 100 complete control)
In short: as §2

foxtail, giant [14] = experiment: Test A postemergence; type: in vivo, Setaria faberi; conditions: postemergence, 10 days; for Foxtail, Giant plant response rating: 125 g ai/ha, 0 to 100 scale, 0 no effect, 100 complete control; for Plant response rating, Foxtail, Giant: 500 g ai/ha, visual injury, 0 to 100 scale (0 no effect, 100 complete control)
In short: as §1

corn [15] = experiment: Test A preemergence; type: in vivo, Zea mays; conditions: 0 to 100 scale
In short: as §1

pigweed, palmer [16] = experiment: Test A preemergence; type: in vivo, Amaranthus palmeri; conditions: 0 to 100 scale
In short: as §1

soybean [17] = experiment: Test A preemergence; type: in vivo, Glycine max; conditions: 0 to 100 scale
In short: as §1

ragweed [18] = experiment: Test A postemergence; type: in vivo, Ambrosia artemisiifolia; conditions: postemergence, 10 days; for Ragweed plant response rating: 125 g ai/ha, 0 to 100 scale, 0 no effect, 100 complete control; for Plant response rating, Ragweed: 500 g ai/ha, visual injury, 0 to 100 scale (0 no effect, 100 complete control)
In short: as §1

ryegrass, Italian [19] = experiment: Test A postemergence; type: in vivo, Lolium multiflorum; conditions: postemergence, 10 days; for Ryegrass, Italian plant response rating: 125 g ai/ha, 0 to 100 scale, 0 no effect, 100 complete control; for Plant response rating, Ryegrass, Italian: 500 g ai/ha, visual injury, 0 to 100 scale (0 no effect, 100 complete control)
In short: as §1

corn [20] = experiment: Test A postemergence; type: in vivo, Zea mays; conditions: postemergence, 10 days; for Corn plant response rating: 125 g ai/ha, 0 to 100 scale, 0 no effect, 100 complete control; for Plant response rating, Corn: 500 g ai/ha, visual injury, 0 to 100 scale (0 no effect, 100 complete control)
In short: as §1

pigweed, palmer [21] = experiment: Test A postemergence; type: in vivo, Amaranthus palmeri; conditions: postemergence, 10 days; for Pigweed, Palmer plant response rating: 125 g ai/ha, 0 to 100 scale, 0 no effect, 100 complete control; for Plant response rating, Pigweed, Palmer: 500 g ai/ha, visual injury, 0 to 100 scale (0 no effect, 100 complete control)
In short: as §1

kochia [22] = experiment: Test A postemergence; type: in vivo, Bassia scoparia; conditions: postemergence, 10 days; for Kochia plant response rating: 125 g ai/ha, 0 to 100 scale, 0 no effect, 100 complete control; for Plant response rating, Kochia: 500 g ai/ha, visual injury, 0 to 100 scale (0 no effect, 100 complete control)
In short: as §1

soybean [23] = experiment: Test A postemergence; type: in vivo, Glycine max; conditions: postemergence, 10 days; for Plant response rating, Soybean: 500 g ai/ha, visual injury, 0 to 100 scale (0 no effect, 100 complete control)
In short: as §1

[24] = 125 g ai/ha, visual injury after 10 days, 0 is no effect, 100 is complete control
[25] = 500 g ai/ha, visual injury after 10 days, 0 is no effect, 100 is complete control

CC(C)c1ncn(-c2ccc(OC(F)(F)F)c(C(=O)N3C[C@H](C)Oc4c(Cl)cccc43)c2)n1 [Compound 111]
Wheat plant response rating (wheat [1]): 10
Plant response rating, Wheat (wheat [1]): 40
Oat, Wild plant response rating (oat, wild [2]): 40
Plant response rating, Oat, Wild (oat, wild [2]): 50
Plant response rating, Sedge, Umbrella (sedge, umbrella): 98
Plant response rating, Ryegrass, Italian (ryegrass, Italian [3]; [24]): 70
Plant response rating, Ryegrass, Italian (ryegrass, Italian [3]; [25]): 100
Plant response rating, Ducksalad (ducksalad): 65
Plant response rating, Barnyardgrass (barnyardgrass [4]; 125 g ai/ha): 90
Plant response rating, Barnyardgrass (barnyardgrass [4]; 500 g ai/ha): 100
Plant response rating, Foxtail, Giant (foxtail, giant [5]; [24]): 100
Plant response rating, Foxtail, Giant (foxtail, giant [5]; [25]): 100
Galium plant response rating (galium): 100
Plant response rating, Galium (galium): 100
Plant response rating, Ragweed (ragweed [6]; [24]): 20
Plant response rating, Ragweed (ragweed [6]; [25]): 90
Plant response rating, Kochia (kochia [7]; [24]): 80
Plant response rating, Kochia (kochia [7]; [25]): 90
Plant response rating, Oat, Wild (oat, wild [8]; [24]): 70
Plant response rating, Oat, Wild (oat, wild [8]; [25]): 90
Barnyardgrass plant response rating (barnyardgrass [9]): 30
Plant response rating, Barnyardgrass (barnyardgrass [9]): 80
Blackgrass plant response rating (blackgrass [10]): 40
Plant response rating, Blackgrass (blackgrass [10]): 50
Plant response rating, Wheat (wheat [11]; [24]): 60
Plant response rating, Wheat (wheat [11]; [25]): 90
Plant response rating, Blackgrass (blackgrass [12]; [24]): 30
Plant response rating, Blackgrass (blackgrass [12]; [25]): 70
Plant response rating, Barnyardgrass (barnyardgrass [13]): 55
Horseweed plant response rating (horseweed): 10
Plant response rating, Horseweed (horseweed): 50
Plant response rating, Rice (rice): 0
Foxtail, Giant plant response rating (foxtail, giant [14]): 90
Plant response rating, Foxtail, Giant (foxtail, giant [14]): 90
Plant response rating, Corn (corn [15]; [24]): 30
Plant response rating, Corn (corn [15]; [25]): 40
Plant response rating, Pigweed, Palmer (pigweed, palmer [16]; [24]): 90
Plant response rating, Pigweed, Palmer (pigweed, palmer [16]; [25]): 100
Plant response rating, Soybean (soybean [17]; [24]): 70
Plant response rating, Soybean (soybean [17]; [25]): 100
Ragweed plant response rating (ragweed [18]): 60
Plant response rating, Ragweed (ragweed [18]): 70
Ryegrass, Italian plant response rating (ryegrass, Italian [19]): 30
Plant response rating, Ryegrass, Italian (ryegrass, Italian [19]): 60
Corn plant response rating (corn [20]): 40
Plant response rating, Corn (corn [20]): 80
Pigweed, Palmer plant response rating (pigweed, palmer [21]): 70
Plant response rating, Pigweed, Palmer (pigweed, palmer [21]): 90
Kochia plant response rating (kochia [22]): 80
Plant response rating, Kochia (kochia [22]): 100
Plant response rating, Soybean (soybean [23]): 100

CC(C)c1ncn(-c2ccc(OCC(F)(F)F)c(C(=O)N3C[C@H](C)Oc4c(Cl)cccc43)c2)n1 [Compound 141]
Wheat plant response rating (wheat [1]): 10
Plant response rating, Wheat (wheat [1]): 20
Oat, Wild plant response rating (oat, wild [2]): 10
Plant response rating, Oat, Wild (oat, wild [2]): 20
Plant response rating, Sedge, Umbrella (sedge, umbrella): 95
Plant response rating, Ryegrass, Italian (ryegrass, Italian [3]; 125 g ai/ha): 90
Plant response rating, Ryegrass, Italian (ryegrass, Italian [3]; [25]): 100
Plant response rating, Ducksalad (ducksalad): 30
Plant response rating, Barnyardgrass (barnyardgrass [4]; 125 g ai/ha): 70
Plant response rating, Barnyardgrass (barnyardgrass [4]; 500 g ai/ha): 90
Plant response rating, Foxtail, Giant (foxtail, giant [5]; 125 g ai/ha): 90
Plant response rating, Foxtail, Giant (foxtail, giant [5]; [25]): 100
Galium plant response rating (galium): 80
Plant response rating, Galium (galium): 100
Plant response rating, Ragweed (ragweed [6]; 125 g ai/ha): 0
Plant response rating, Ragweed (ragweed [6]; [25]): 50
Plant response rating, Kochia (kochia [7]; 125 g ai/ha): 0
Plant response rating, Kochia (kochia [7]; [25]): 50
Plant response rating, Oat, Wild (oat, wild [8]; 125 g ai/ha): 60
Plant response rating, Oat, Wild (oat, wild [8]; [25]): 80
Barnyardgrass plant response rating (barnyardgrass [9]): 30
Plant response rating, Barnyardgrass (barnyardgrass [9]): 70
Blackgrass plant response rating (blackgrass [10]): 30
Plant response rating, Blackgrass (blackgrass [10]): 80
Plant response rating, Wheat (wheat [11]; 125 g ai/ha): 20
Plant response rating, Wheat (wheat [11]; [25]): 30
Plant response rating, Blackgrass (blackgrass [12]; 125 g ai/ha): 20
Plant response rating, Blackgrass (blackgrass [12]; [25]): 70
Plant response rating, Barnyardgrass (barnyardgrass [13]): 25
Horseweed plant response rating (horseweed): 0
Plant response rating, Horseweed (horseweed): 0
Plant response rating, Rice (rice): 10
Foxtail, Giant plant response rating (foxtail, giant [14]): 60
Plant response rating, Foxtail, Giant (foxtail, giant [14]): 100
Plant response rating, Corn (corn [15]; 125 g ai/ha): 10
Plant response rating, Corn (corn [15]; [25]): 10
Plant response rating, Pigweed, Palmer (pigweed, palmer [16]; 125 g ai/ha): 100
Plant response rating, Pigweed, Palmer (pigweed, palmer [16]; [25]): 100
Plant response rating, Soybean (soybean [17]; 125 g ai/ha): 80
Plant response rating, Soybean (soybean [17]; [25]): 80
Ragweed plant response rating (ragweed [18]): 30
Plant response rating, Ragweed (ragweed [18]): 60
Ryegrass, Italian plant response rating (ryegrass, Italian [19]): 30
Plant response rating, Ryegrass, Italian (ryegrass, Italian [19]): 90
Corn plant response rating (corn [20]): 90
Plant response rating, Corn (corn [20]): 90
Pigweed, Palmer plant response rating (pigweed, palmer [21]): 70
Plant response rating, Pigweed, Palmer (pigweed, palmer [21]): 100
Kochia plant response rating (kochia [22]): 80
Plant response rating, Kochia (kochia [22]): 90
Soybean plant response rating (soybean [23]; 125 g ai/ha, 0 to 100 scale, 0 no effect, 100 complete control): 100
Plant response rating, Soybean (soybean [23]): 100
